The term AC50 denotes the concentration at which the activity in the assay is half-maximal. Broadly, the GI50 is the concentration at which growth is held to half of that of the control.

Experiment [1] concerns the target T1, Oxysterols receptor LXR-beta (Homo sapiens, UniProt P55055).
T1 sequence (P55055 whole entry): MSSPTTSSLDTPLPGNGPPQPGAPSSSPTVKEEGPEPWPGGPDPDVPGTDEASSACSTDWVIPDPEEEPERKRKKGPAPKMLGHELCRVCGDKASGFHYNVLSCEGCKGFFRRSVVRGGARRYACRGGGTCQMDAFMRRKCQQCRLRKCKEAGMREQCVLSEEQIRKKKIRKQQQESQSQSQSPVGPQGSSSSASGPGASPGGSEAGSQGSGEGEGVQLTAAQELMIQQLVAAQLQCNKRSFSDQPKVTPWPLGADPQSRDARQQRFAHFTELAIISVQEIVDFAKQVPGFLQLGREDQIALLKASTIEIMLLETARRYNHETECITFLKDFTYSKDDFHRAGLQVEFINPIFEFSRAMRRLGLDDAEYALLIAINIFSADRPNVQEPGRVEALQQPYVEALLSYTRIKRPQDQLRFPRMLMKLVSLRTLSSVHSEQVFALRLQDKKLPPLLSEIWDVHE
The format is functional, cell-based.

A short description of experiment [2]: Luminescence-based cell-based high throughput dose response assay to identify activators of the DAF-12 from the parasite S. stercoralis (ssDAF-12). Format: functional.
Experiment [3] deals with T1, Oxysterols receptor LXR-beta. As to the kind of experiment: LXR agonists, Gal4 luciferase reporter, dose response, counter-screen for ssDAF-12 agonist project, cell-based, luminescence, HEK293, S. stercoralis campaign (AID 720737). Particulars: read-out: IC50 (the source's name). Format: functional.
The next experiment concerns the target Prothrombin (Homo sapiens, UniProt P00734). Briefly: Thrombin 1536 HTS Dose Response Confirmation. [Related pubchem assays: 1046 (Thrombin 1536 HTS; hits were confirmed in this assay)]. Format: functional.
Experiment [4] concerns the target Peroxisome proliferator-activated receptor gamma/Nuclear receptor coactivator 2 (Homo sapiens, UniProt P37231). Format: functional.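 Further: agonist potency for raising coactivator recruitment to the receptor.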
For experiment [5], the target named is Peroxisome proliferator-activated receptor gamma/Nuclear receptor coactivator 1 (Homo sapiens, UniProt P37231). Format: functional.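 Further: agonist potency as compounds enhance coactivator SRC-1 recruitment to PPARgamma.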
Experiment [6] addresses Peroxisome proliferator-activated receptor gamma/Nuclear receptor coactivator 3 (Homo sapiens, UniProt P37231). The format is functional.
For experiment [7], the target named is T2, Mannose-6-phosphate isomerase (Homo sapiens, UniProt P34949).
T2 sequence (P34949 whole entry): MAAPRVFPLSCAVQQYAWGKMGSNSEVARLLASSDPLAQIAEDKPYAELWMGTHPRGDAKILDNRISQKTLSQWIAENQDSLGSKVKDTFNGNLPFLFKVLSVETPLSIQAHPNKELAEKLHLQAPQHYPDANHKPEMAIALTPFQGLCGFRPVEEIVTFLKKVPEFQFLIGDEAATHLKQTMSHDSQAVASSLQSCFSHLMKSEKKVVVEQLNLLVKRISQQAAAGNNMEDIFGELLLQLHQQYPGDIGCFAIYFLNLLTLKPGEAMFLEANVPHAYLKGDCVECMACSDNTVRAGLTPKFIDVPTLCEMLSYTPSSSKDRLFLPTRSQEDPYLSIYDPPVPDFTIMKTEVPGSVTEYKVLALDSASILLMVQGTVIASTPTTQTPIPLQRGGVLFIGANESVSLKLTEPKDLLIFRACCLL
Briefly: human PMI inhibitors, high substrate, primary screen, biochemical, fluorescence intensity, high mannose 6-phosphate (AID 1220).

The target of a further experiment is T3, Caspase-6 (Homo sapiens, UniProt P55212).
T3 sequence (P55212 whole entry): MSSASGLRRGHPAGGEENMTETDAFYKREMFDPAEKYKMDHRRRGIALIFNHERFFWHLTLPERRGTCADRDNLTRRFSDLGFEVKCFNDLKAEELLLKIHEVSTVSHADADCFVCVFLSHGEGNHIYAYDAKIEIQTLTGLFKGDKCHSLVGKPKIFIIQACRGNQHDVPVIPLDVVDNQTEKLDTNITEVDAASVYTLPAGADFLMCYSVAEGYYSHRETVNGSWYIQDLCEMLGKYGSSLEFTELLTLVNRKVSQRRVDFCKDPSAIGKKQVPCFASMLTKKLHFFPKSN
As to the kind of experiment: human caspase-6 inhibitors, dose response, biochemical, VEID-R110 fluorescence, cherry-pick (AID 720632).

In experiment [8] the target is T4, Polyadenylate-binding protein 1 (Homo sapiens, UniProt P11940). As to the kind of experiment: PABP1 MLLE–PAM2 binding inhibitor potency, dose response, biochemical, fluorescence polarization, FITC-PAM2 peptide (AID 602259). The format is functional. As to conditions: read-out: IC50_Mean. A general note: Polarisation of emitted light reports the rotation of a fluorescent probe.
T4 sequence (P11940 whole entry): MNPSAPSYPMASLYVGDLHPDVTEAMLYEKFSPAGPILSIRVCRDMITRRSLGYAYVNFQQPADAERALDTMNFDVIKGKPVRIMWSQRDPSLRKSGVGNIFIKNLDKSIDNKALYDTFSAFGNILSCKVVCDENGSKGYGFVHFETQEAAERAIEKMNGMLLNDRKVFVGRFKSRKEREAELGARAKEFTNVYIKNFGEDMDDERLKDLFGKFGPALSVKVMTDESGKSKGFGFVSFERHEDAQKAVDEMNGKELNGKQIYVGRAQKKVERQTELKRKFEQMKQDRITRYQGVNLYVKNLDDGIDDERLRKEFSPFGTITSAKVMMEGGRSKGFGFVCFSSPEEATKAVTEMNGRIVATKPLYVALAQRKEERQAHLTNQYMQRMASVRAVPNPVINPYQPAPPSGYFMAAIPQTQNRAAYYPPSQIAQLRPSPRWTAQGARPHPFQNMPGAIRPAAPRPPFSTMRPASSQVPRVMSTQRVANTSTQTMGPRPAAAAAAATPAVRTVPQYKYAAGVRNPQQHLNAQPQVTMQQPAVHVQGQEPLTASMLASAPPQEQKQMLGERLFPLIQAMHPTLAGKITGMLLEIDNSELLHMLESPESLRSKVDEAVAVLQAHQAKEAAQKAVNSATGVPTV

Experiment [9] addresses T4, Polyadenylate-binding protein 1. As to the kind of experiment: PABP1 MLLE–PAM2 interaction inhibitors, dose response, miRNA deadenylation inhibitor project, biochemical, fluorescence polarization, Cy5-PAM2 peptide, secondary (AID 602260). The format is functional. Particulars: read-out: IC50_Mean.
In a further experiment the test system is P388. Briefly: cells. Format: functional. Particulars: Mus musculus.
Another experiment relates to SN12K1. Briefly: cells. The format is functional. As to conditions: Homo sapiens.
In another experiment the test system is P388/ADR. As to the kind of experiment: cells. The format is functional. Particulars: Mus musculus.
Experiment [10] addresses Eukaryotic translation initiation factor 4E (Mus musculus, UniProt P63073). Briefly: eIF4E–eIF4G protein interaction inhibitors, dose response, biochemical, TR-FRET (AID 855).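 Further: potency for disrupting eIF4E binding to eIF4GI seen as loss of FRET.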 Format: functional. On the technique in general: TR-FRET usually uses a lanthanide donor and a delayed reading to cut background.
Experiment [11] addresses DNA dC->dU-editing enzyme APOBEC-3A (Homo sapiens, UniProt P31941). As to the kind of experiment: APOBEC3A DNA deaminase inhibitors, dose response, biochemical (AID 504722). The format is functional.
Experiment [12] concerns the target T5, Voltage-gated N-type calcium channel alpha-1B subunit/Amyloid beta A4 precursor protein-binding family A member 1 (Homo sapiens, UniProt Q00975+Q02410). The format is protein assay.
Experiment [13] addresses T5, Voltage-gated N-type calcium channel alpha-1B subunit/Amyloid beta A4 precursor protein-binding family A member 1. The format is protein assay. This is another data set of the same source.
In experiment [14] the target is DNA dC->dU-editing enzyme APOBEC-3G (Homo sapiens, UniProt Q9HC16). As to the kind of experiment: Dose Response confirmation of small molecule APOBEC3G DNA Deaminase Inhibitors via a fluorescence-based single-stranded DNA deaminase assay. [Related pubchem assays (depositor defined):AID493012, AID493028]. Format: functional.
A short description of experiment [15]: microbe, parasite or virus in culture. Format: functional. As to conditions: Mycobacterium tuberculosis.
In experiment [16] the target is T6, Luciferin 4-monooxygenase (Photinus pyralis, UniProt P08659). As to the kind of experiment: firefly luciferase enzyme inhibitors, dose response, biochemical, luminescence (AID 1891).
T6 sequence (P08659 whole entry): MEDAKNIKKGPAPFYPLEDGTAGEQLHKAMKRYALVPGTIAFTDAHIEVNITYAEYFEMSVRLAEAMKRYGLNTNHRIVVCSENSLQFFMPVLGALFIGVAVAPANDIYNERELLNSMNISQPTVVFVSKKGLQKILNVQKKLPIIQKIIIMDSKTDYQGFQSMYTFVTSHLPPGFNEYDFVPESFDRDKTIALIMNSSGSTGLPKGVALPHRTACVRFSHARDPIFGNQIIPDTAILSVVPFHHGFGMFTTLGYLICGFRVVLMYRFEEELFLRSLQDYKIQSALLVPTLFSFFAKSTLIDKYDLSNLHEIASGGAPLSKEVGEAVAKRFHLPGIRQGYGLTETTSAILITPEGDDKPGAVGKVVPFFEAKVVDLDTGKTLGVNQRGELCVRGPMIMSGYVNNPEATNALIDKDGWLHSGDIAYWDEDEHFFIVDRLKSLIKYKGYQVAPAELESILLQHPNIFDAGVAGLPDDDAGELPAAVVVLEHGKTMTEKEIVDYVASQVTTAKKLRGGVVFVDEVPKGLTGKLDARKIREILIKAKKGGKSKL
Experiment [17] deals with T7, Replicative DNA helicase DnaB (Mycobacterium tuberculosis, UniProt P9WMR3).
T7 sequence (P9WMR3 whole entry): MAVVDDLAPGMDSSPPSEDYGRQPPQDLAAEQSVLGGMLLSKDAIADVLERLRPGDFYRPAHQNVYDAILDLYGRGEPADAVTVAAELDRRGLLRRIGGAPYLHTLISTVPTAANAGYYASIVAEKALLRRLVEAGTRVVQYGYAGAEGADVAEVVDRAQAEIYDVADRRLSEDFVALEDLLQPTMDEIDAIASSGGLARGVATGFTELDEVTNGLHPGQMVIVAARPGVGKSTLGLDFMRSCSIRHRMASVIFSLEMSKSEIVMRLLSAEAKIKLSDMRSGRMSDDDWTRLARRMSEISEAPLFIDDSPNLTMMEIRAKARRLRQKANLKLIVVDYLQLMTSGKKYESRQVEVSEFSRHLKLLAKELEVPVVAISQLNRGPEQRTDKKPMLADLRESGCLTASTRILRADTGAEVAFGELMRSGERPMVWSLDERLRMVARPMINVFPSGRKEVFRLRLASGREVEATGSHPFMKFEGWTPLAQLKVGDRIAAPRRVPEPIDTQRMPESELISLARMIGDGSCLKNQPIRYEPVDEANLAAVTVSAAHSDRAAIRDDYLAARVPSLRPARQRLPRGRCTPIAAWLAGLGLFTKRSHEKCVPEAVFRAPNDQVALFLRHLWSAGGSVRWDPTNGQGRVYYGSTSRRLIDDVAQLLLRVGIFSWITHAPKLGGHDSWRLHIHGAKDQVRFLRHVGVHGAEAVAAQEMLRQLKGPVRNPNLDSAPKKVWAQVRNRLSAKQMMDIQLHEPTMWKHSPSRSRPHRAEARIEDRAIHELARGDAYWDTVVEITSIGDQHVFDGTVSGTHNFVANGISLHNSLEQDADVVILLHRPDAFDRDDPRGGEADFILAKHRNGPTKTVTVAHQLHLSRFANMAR
As to the kind of experiment: DnaB intein splicing inhibitors, dose response, biochemical, cell-free fluorescence (AID 449749). Format: functional.

Experiment [18] in a line: Luminescence Cell-Based Dose Response HTS to Identify Inhibitors of 5'UTR Stem-Loop Driven Prion Protein mRNA Translation in H4 Neuroglioblastoma Cells. [Related pubchem assays: 1827 (Project Summary), 1813 (Primary HTS)]. Format: functional.
For experiment [19], the target named is T6, Luciferin 4-monooxygenase. As to the kind of experiment: Counter Screen for Luciferase-based Assay Positives. [Related pubchem assays: 620, 618, 411 ].
Experiment [20] can be described thus: Luminescence Cell-Based Dose Confirmation HTS to Identify Inhibitors of Platelet Dense Granule Release. [Related pubchem assays: 1663 (Primary HTS), 1678 (Summary of Project)]. The format is functional.
For the next experiment, the target named is T8, Protein RecA (Mycobacterium tuberculosis, UniProt P9WHJ3).
T8 sequence (P9WHJ3 whole entry): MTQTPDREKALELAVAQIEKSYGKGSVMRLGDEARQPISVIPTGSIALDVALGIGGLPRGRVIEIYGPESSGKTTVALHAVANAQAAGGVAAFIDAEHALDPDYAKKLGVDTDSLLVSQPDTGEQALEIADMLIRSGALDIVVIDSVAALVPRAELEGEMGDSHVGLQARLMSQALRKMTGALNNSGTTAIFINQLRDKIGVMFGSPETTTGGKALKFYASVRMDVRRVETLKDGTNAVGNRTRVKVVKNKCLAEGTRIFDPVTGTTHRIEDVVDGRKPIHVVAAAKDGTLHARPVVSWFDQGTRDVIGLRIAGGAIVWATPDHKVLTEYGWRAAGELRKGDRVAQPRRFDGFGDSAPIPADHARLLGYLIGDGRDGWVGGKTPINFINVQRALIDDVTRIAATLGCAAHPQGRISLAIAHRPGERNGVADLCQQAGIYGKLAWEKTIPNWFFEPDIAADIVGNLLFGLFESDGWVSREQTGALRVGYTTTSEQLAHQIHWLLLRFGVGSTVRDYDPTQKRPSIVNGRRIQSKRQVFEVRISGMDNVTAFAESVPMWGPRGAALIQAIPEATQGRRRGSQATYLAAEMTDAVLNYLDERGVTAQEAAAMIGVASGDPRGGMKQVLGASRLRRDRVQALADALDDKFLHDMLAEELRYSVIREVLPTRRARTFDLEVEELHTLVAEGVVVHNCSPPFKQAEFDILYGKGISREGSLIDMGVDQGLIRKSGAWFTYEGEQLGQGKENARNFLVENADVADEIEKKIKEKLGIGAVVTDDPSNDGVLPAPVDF
As to the kind of experiment: Fluorescence Cell-Free Homogeneous Dose Retest to Identify Inhibitors of RecA-Intein Splicing Activity. [Related pubchem assays (depositor defined):AID2097, AID2223, AID489010, AID492950]. The format is functional.

Another experiment deals with HT-1080. Briefly: cytotoxicity in HT1080 fibrosarcoma cells, cell-based, fluorescence readout (AID 620). The format is functional. As to conditions: Homo sapiens.

Activity calls are given as the source filed them.

T5 sequence (Q00975 whole entry): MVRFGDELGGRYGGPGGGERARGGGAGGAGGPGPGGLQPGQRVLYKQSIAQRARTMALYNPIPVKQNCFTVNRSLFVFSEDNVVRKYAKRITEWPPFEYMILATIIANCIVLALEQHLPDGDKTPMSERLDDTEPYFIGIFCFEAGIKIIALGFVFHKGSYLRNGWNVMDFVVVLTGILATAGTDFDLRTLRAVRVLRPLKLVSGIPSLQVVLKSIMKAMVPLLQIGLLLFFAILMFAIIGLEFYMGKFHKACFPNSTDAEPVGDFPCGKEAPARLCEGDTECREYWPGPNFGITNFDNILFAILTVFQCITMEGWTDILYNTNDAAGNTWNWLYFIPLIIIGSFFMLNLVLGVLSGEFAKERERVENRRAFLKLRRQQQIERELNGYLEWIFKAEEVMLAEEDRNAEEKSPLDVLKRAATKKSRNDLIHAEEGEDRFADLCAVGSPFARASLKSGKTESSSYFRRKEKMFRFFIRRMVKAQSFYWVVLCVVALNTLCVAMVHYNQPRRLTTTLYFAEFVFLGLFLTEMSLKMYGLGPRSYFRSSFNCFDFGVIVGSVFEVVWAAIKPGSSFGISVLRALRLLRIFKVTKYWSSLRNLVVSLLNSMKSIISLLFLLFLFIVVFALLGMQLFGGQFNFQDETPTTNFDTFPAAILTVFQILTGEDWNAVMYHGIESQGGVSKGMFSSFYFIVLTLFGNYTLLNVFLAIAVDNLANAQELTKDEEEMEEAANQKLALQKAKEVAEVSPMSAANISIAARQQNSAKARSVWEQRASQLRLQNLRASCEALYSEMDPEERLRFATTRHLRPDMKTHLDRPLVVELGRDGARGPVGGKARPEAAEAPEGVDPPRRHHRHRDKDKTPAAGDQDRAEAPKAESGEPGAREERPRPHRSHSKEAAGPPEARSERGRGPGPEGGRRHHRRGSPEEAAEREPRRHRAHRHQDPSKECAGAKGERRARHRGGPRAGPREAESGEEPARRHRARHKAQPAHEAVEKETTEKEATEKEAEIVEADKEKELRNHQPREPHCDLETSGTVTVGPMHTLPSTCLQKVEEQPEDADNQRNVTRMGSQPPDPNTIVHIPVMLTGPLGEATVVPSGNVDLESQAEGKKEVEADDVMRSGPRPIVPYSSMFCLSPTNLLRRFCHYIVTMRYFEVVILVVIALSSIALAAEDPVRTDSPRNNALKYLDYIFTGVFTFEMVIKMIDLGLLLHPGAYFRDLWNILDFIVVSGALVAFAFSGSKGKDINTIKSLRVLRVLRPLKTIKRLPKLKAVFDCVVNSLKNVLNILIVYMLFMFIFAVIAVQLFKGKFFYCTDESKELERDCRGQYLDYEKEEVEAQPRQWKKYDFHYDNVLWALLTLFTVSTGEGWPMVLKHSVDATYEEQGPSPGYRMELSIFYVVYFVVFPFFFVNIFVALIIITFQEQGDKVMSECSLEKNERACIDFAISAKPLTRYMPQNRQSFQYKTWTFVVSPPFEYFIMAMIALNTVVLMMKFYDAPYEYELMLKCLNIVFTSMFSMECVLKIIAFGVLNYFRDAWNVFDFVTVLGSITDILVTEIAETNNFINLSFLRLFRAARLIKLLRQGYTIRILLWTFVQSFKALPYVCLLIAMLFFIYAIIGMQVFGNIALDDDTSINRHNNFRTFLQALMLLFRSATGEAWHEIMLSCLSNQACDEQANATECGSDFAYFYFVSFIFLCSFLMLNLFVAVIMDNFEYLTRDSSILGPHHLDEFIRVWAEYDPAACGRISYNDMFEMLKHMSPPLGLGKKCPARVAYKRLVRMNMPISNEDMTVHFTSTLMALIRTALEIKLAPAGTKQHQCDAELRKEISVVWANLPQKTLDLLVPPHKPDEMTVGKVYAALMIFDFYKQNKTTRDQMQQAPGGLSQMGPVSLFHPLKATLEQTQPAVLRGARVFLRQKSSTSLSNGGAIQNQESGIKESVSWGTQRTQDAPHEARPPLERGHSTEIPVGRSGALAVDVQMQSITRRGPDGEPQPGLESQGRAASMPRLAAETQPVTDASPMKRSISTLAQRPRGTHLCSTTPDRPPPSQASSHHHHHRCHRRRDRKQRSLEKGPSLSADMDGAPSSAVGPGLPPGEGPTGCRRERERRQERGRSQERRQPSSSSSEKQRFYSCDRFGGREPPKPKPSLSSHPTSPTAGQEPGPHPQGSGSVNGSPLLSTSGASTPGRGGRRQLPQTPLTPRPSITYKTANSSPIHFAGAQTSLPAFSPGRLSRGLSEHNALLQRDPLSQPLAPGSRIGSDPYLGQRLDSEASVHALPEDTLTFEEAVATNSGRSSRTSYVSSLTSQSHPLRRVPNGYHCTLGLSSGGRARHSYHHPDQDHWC
T5 sequence (Q02410 whole entry): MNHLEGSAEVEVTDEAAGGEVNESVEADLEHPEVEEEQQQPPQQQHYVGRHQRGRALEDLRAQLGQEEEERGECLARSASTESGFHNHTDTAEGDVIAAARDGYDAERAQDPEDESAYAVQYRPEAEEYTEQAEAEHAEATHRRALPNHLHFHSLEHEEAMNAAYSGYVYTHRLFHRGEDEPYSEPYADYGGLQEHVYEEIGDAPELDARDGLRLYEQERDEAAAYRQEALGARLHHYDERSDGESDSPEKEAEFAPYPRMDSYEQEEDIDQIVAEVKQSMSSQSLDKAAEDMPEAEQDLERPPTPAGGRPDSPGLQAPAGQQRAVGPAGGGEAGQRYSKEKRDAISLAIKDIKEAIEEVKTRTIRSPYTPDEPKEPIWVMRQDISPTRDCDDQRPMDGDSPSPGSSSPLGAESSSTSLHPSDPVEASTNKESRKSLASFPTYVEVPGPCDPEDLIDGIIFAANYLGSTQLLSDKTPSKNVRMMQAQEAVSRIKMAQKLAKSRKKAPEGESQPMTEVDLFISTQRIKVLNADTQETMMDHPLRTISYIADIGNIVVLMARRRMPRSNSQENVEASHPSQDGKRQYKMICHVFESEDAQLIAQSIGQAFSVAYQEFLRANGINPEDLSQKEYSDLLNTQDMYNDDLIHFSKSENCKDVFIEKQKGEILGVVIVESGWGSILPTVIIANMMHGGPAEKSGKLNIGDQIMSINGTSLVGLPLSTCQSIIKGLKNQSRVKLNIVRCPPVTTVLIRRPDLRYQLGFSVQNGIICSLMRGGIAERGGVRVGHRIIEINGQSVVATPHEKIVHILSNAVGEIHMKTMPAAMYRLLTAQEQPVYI
DNA dC->dU-editing enzyme APOBEC-3A, sequence (P31941 whole entry): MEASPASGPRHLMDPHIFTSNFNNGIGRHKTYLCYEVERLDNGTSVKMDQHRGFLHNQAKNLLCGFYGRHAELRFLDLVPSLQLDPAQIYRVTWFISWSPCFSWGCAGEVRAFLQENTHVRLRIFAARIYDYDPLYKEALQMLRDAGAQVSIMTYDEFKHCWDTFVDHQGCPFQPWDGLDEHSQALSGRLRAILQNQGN
Eukaryotic translation initiation factor 4E, sequence (P63073 whole entry): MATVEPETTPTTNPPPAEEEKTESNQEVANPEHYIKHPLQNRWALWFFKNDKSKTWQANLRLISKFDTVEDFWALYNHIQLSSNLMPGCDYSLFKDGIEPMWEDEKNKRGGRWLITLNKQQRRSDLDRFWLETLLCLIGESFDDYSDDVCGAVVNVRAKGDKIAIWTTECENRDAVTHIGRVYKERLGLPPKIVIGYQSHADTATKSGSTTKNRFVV

As to `Cc1cccc2c(N=Nc3ccccc3)c(O)[nH]c12`, the EC50 (in the experiment “cells”; in experiment [1]; in [3]) was > 67.5 µM (inactive) each time. Further, the IC50 in [2] is > 67.5 µM (inactive).
For the compound `CCOC(=O)c1sc(NC(=O)/C=C/c2cnn(C)c2C)c(C(=O)OCC)c1C`, the IC50 against Prothrombin is on record as > 50 µM (not active).
Regarding `COc1cc(OC)cc(-n2nnnc2SCC(=O)Nc2ccc(C(C)=O)cc2)c1`, on Prothrombin, the IC50 is on record as > 50 µM (not active). The EC50 in experiment [4] was 5.13 µM (active); in [5], 8.56 µM (active); in experiment [6], 8.1 µM (active).
On to `CCC1(CC)Cc2ccccc2C2=C(C(=O)N3CCCCC3)C(=O)C(=O)N21`, for which, in experiment [7], the IC50 is given as > 50 µM (not active).
Consider `CC1CCCCC1NC(=O)COC(=O)c1ccc([N+](=O)[O-])o1` (stereo unspecified), for which the AC50 on Caspase-6 was 43.8 µM (active).
Consider `Fc1ccccc1-c1nc(-c2ccccc2)no1`, for which the EC50 (in “cells”; in experiment [1]) was > 67.5 µM (inactive) in each case.
With `CN1N=C(N)c2cn(C3OC(COP(=O)(O)O)C(O)C3O)c3ncnc1c23` (stereo unspecified), the IC50 in [8] and in experiment [9] was > 66 µM (inactive) each time. For the same compound, the 50% growth inhibitory concentration (GI50) was 0.5 µM (active) in the experiment with P388, 32.8 µM (inactive) in the experiment with SN12K1 and 0.5 µM (active) in the experiment on P388/ADR. Besides, on Caspase-6, the concentration at half-maximal activity (AC50) is 29.6 µM (active).
As for `Cc1ccc(C(=O)C2CC2)c(C)c1`, the IC50 in experiment [2] was > 67.4 µM (inactive). Further, the EC50 in experiment [3] is > 67.4 µM (inactive).
With `CCOC(=O)c1ccc(/N=c2\ssnc2Cl)cc1`, the IC50 was 50 µM (inactive) in experiment [10]; > 50 µM (not active) in experiment [7]; > 100 µM (inactive) in [11]; 11.5 µM (active) in experiment [12]; 7.13 µM (active) in experiment [13]; 13.8 µM (active) in experiment [14].
As for `OC1=C(/C=N/c2ccc3c(c2)OCO3)CCc2ccccc21`, in experiment [15], the CC50 is > 40 µM (active). The EC50 in [16] is 0.871 µM (active); in experiment [18], 7.7 µM (active); in experiment [19], 2.31 µM (active); in experiment [20], 7.07 µM (active); at Protein RecA, 0.43 µM (active); with HT-1080, > 50 µM (not active). Further, the IC50 in [7] was 0.829 µM (active). The AC50 in experiment [17] is > 380 µM (inactive).

The values are drawn from ChEMBL document CHEMBL1201862, “PubChem BioAssay data set” (2004).
